According to US20120035244A1, “PARP1 TARGETED THERAPY” (THE REGENTS OF THE UNIVERSITY OF MICHIGAN, priority 2010, published 2012):
“Also recorded” adds a separate entry of the source.

Experiments:
[1] = system: ERG target genes in VCaP cells; experiment: qPCR analysis of ERG-target genes in VCaP cells; type: cell-based, human; settings: siRNA or drug for 48 hours
Description: Total RNA was isolated from VCAP, RWPE or PrEC cells that were transfected with siRNA as indicated (Qiagen). Quantitative PCR (QPCR) was performed using SYBR Green dye on an Applied Biosystems 7300 Real Time PCR system (Applied Biosystems, Foster City, Calif.) as described (Tomlins, S. A., et al. Science (New York, N.Y. 310, 644-648 (2005)). Briefly, 1 μg of total RNA was reverse transcribed into cDNA using SuperScript 111 (Invitrogen, Carlsbad, Calif.) in the presence of random primers (Invitrogen). All reactions were performed in triplicate with SYBR Green Master Mix (Applied Biosystems) plus 25 ng of both the forward and reverse primer according to the manufacturer's recommended thermocycling conditions, and then subjected to melt curve analysis. […] The relative quantity of the target gene was completed for each sample using the ΔΔCt method by the comparing mean Ct of the gene to the average Ct of the housekeeping gene, β-Actin8. […] The primer sequences for the transcript analyzed were either previously described (Tomlins et al., 2008, supra) or are provided in Table 4.
Total RNA was isolated from VCAP, RWPE or PrEC cells that were transfected with siRNA as indicated (Qiagen). […] The relative quantity of the target gene was completed for each sample using the ΔΔCt method by the comparing mean Ct of the gene to the average Ct of the housekeeping gene, β-Actin8. […]

BRCA2 shRNA PC3 cells = experiment: Neutral COMET assay, BRCA2 shRNA PC3 cells; type: cell-based, human; settings: P=0.14 and P=0.003, two-way ANOVA
Description: VCaP, PC3, PrEC or RWPE cells were seeded at 250,000 cells/mL in a 6-well plate 24 hours prior to treatment with siRNA, drug or vehicle control. After 48 hours, cells were trypsinized, harvest by centrifugation and re-suspend in PBS. Cell counts were then normalized to 1×10^5 cells/mL. Suspended cells (25 μL) were then mixed with 250 μL 1.0% ultrapure low melting point agarose (Invitrogen) made in 1× Tris-Borate buffer. The agarose-cell mixture was then dropped onto slides allowed to solidify at 4° C. in the dark for 20 minutes before immersion in COMET assay lysis solution (Trevigen, Gaithersburg, Md.) at 4° in the dark for 45 minutes. Excess buffer was then removed and slides were submerged in freshly prepared neutral solution (Tris Base 60.57 g, Sodium Acetate 204.12 g, dissolve in 450 ml of dH2O, adjust to pH=9.0 with glacial acetic acid) at room temperature in the dark for 40 minutes. Slides were then washed twice by immersing in 1×TBE buffer prior to neutral electrophoresis at 20 volts for 30 minutes. Slides were then fixed in 70% ethanol for 5 minutes. […] COMET tail moments were then assessed using COMETscore.v1.5 (AutoCOMET.com, Sumerduck, Va.) image processing software as described by the manufacturer with greater than 100 cells analyzed in triplicate experiments.

VCaP = experiment: CAM xenograft tumor weight, VCaP; type: in vivo, chicken embryo; settings: extended Olaparib treatment, P<0.05
Description: The CAM assay was performed as described previously (Zijlstra, A., et al., Cancer research 62, 7083-7092 (2002)). Briefly, fertilized eggs were incubated in a rotary humidified incubator at 38° C. with for 10 days. After releasing the CAM by applying mild amount of low pressure to the hole over the air sac and cutting a square 1-cm^2 window encompassing a second hole near the allantoic vein, cultured human cells that had been pre-treated with siRNA as indicated were detached by trypsinization and re-suspended in complete medium prior to implantation of 2×10^6 cells adjacent to the mesenchyme in each egg. The windows were subsequently, sealed and the eggs were returned to a stationary incubator. Cells were then treated as indicated with 40 mg/kg body weight Olaparib which was administered on day 13, 15 and 17. Day 18 embryos were sacrificed. Tumors were then excised and weighed. […] After incubation of either the metastasis or intravasation assays, the extra-embryonic tumor and CAM, as well as the embryonic liver were harvested and analyzed for the presence of tumor cells by quantitative human alu-specific PCR. […] Quantification of human cells in the extracted DNA was done as described^14. Fluorogenic TaqMan qPCR probes were applied as above, and DNA copy numbers were quantified.

PC3 cells = experiment: Colony formation after radiation, isogenic PC3 model overexpressing T2:ERG; type: cell-based; settings: PC3, pre-treated with 10 μM Olaparib
Description: The effect of ETS overexpression on radioresistance was assayed. Isogenic PC3 or DU145 models overexpressing either T2:ERG or ERG with a deleted ETS domain were pre-treated with or without 10 μM Olaparib and then treated with different doses of radiation as indicated. Colony formation was assessed. Experiments were also performed in which cells were pre-treated with either PARP1 or control siRNA prior to radiation. Western blot analysis was used to assess PARP knockdown efficiency in the inset. Total Poly(ADP-ribose) (or PAR) levels were assessed by Western blot analysis from total cell lysates. All experiments were run in triplicate. Error bars are standard error of the mean.

O=C(c1cc(Cc2n[nH]c(=O)c3ccccc23)ccc1F)N1CCN(C(=O)C2CC2)CC1 [Olaparib, 4-[3-(4-Cyclopropanecarbonylpiperazine-1-carbonyl)-4-fluorobenzyl]-2H-phthalazin-1-one]
expression of the ERG target genes (qPCR) [1]: confirmed gene expression changes as predicted by the gene expression arrays; also recorded: altered expression of the ERG target genes
COMET tail moments versus Olaparib treated ETS overexpressing cells (BRCA2 shRNA PC3 cells): slightly larger tail moments
tumor size (weight) on CAM (VCaP): significantly smaller
ERG induced radiation resistance (colony formation) (PC3 cells): blocks ERG induced radiation resistance; also recorded: reversed by PARP inhibition
